Values of other authors in patent US11559486B2, “Ready-to-use formulation for Vincristine Sulfate Liposome Injection” (Spectrum Pharmaceuticals, Inc., priority 2015, dated 2023).

Conditions: 0.45% aqueous sodium chloride and Ringers admixtures at 25° C. to 37° C.

Row | SMILES | degradation in chloride-containing admixtures
1 | COc1cccc2c1C(=O)c1c(O)c3c(c(O)c1C2=O)C[C@@](O)(C(=O)CO)C[C@@H]3O[C@H]1C[C@H](N)[C@H](O)[C@H](C)O1 [Doxorubicin] | degrade rapidly
2 | CC[C@]1(O)C[C@H]2CN(CCc3c([nH]c4ccccc34)[C@@](C(=O)OC)(c3cc4c(cc3OC)N(C=O)[C@H]3[C@@](O)(C(=O)OC)[C@H](OC(C)=O)[C@]5(CC)C=CCN6CC[C@]43[C@@H]65)C2)C1 [vincristine, (3aR,3a^1R,4R,5S,5aR,10bR)-methyl-4-acetoxy-3a-ethyl-9-((5S,7S,9S)-5-ethyl-5-hydroxy-9-(methoxycarbonyl)-2,4,5,6,7,8,9,10-octahydro-1H-3,7-methano[1]azacycloundecino[5,4-b]indol-9-yl)-6-formyl-5-hydroxy-8-methoxy-3a,3a1,4,5,5a,6,11,12-octahydro-1H-indolizino[8,1-cd]carbazole-5-carboxylate] | degrade rapidly
